From ChEMBL document CHEMBL2406902, “Potent and Orally Bioavailable GPR142 Agonists as Novel Insulin Secretagogues for the Treatment of Type 2 Diabetes” (ACS Med Chem Lett, 2013)
Calls of active or inactive are those of the source. The rule behind the calls is not given here.

Legend:
[1] = Metabolic stability in human liver microsomes assessed as compound remaining at 1 uM after 30 mins by LC/MS analysis; format: ADME, Microsome; settings: read-out: Stability
[2] = Permeability of the compound at pH 7.4 by PAMPA; format: ADME; settings: read-out: permeability
[3] = Lipophilicity, log D of the compound at pH 7.4; format: physicochemical; settings: buffer
[4] = Permeability of the compound at pH 5 by PAMPA; format: ADME; settings: read-out: permeability
[5] = Metabolic stability in monkey liver microsomes assessed as compound remaining at 1 uM after 30 mins by LC/MS analysis; format: ADME, Macaca mulatta, Microsome; settings: rhesus monkey, read-out: Stability
[6] = target: T1, Probable G-protein coupled receptor 142 (Homo sapiens, UniProt Q7Z601); experiment: Agonist activity at human GPR142 transfected in HEK293 cells after 1 hr by inositol phosphate accumulation assay; format: functional, cell-based
T1 sequence (Q7Z601 whole entry): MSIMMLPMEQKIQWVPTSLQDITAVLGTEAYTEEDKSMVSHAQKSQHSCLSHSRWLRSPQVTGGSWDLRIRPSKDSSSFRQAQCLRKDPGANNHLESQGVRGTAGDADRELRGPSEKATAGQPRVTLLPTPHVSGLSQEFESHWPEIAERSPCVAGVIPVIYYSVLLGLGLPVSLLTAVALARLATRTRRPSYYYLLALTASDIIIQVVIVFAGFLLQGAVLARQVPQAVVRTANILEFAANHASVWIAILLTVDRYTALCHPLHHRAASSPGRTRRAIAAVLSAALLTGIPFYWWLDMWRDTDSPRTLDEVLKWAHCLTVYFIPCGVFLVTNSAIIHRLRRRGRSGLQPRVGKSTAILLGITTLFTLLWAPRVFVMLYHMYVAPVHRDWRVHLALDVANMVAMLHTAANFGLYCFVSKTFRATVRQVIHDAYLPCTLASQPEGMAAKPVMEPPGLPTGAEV

[7] = Metabolic stability in mouse liver microsomes assessed as compound remaining at 1 uM after 15 mins by LC/MS analysis; format: ADME, Microsome; settings: read-out: Stability
[8] = Metabolic stability in rat liver microsomes assessed as compound remaining at 1 uM after 30 mins by LC/MS analysis; format: ADME, Microsome; settings: read-out: Stability
Pancreatic islet [9] = experiment: Antidiabetic activity in rat primary pancreatic islets assessed as potentiation of insulin secretion under high glucose condition at 1 to 100 uM after 60 mins; format: functional
Mus musculus [10] = experiment: Antidiabetic activity in sc dosed mouse assessed as improvement of glucose tolerance; format: functional, organism-based
[11] = Clearance in monkey at 0.5 mg/kg, iv; format: ADME, organism-based, Macaca mulatta; set-up: dose 0.5 mg/kg, route intravenous; settings: rhesus monkey, in vivo
Pancreatic islet [12] = experiment: Antidiabetic activity in rat primary pancreatic islets assessed as potentiation of insulin secretion under low glucose condition at 1 to 100 uM after 60 mins; format: functional
[13] = Volume of distribution at steady state in monkey at 0.5 mg/kg, iv; format: ADME, organism-based, Macaca mulatta; set-up: dose 0.5 mg/kg, route intravenous; settings: rhesus monkey, in vivo, read-out: Vdss
[14] = Oral bioavailability in monkey at 1 mg/kg; format: ADME, organism-based, Macaca mulatta; settings: rhesus monkey, in vivo
[15] = Metabolic stability in human liver microsomes assessed as compound remaining at 1 uM after 15 mins by LC/MS analysis; format: ADME, Microsome; settings: read-out: Stability
Cynomolgus monkey [16] = experiment: Antidiabetic activity in cynomolgus monkey having impaired glucose tolerance assessed as decrease in blood glucose level at 10 mg/kg administered 60 mins for once a week followed by glucose challenge by OGTT; format: functional, organism-based; set-up: dose 10 mg/kg; settings: Macaca fascicularis
Mus musculus [17] = experiment: Antidiabetic activity in C57BL/6J mouse assessed as decrease in blood glucose level at 10 mg/kg administered 30 mins followed by glucose challenge by OGTT; format: functional, organism-based; set-up: dose 10 mg/kg
Cynomolgus monkey [18] = experiment: Antidiabetic activity in cynomolgus monkey having impaired glucose tolerance assessed as decrease in blood glucose level at 10 mg/kg, po administered 60 mins for once a week followed by glucose challenge by OGTT; format: functional, organism-based; set-up: dose 10 mg/kg; settings: Macaca fascicularis
Mus musculus [19] = experiment: Antidiabetic activity in po bolus dosed ob/ob mouse assessed as increase in plasma insulin level after 15 to 20 mins; format: functional, organism-based
Mus musculus [20] = experiment: Antidiabetic activity in po dosed C57BL/6J mouse assessed as decrease in blood glucose level administered 30 mins followed by glucose challenge by OGTT; format: functional
Cytochrome P450 3A4 = Cytochrome P450 3A4 (Homo sapiens, UniProt P08684); experiment: Inhibition of CYP3A4 (unknown origin); format: ADME
[21] = Half life in monkey at 1 mg/kg, po; format: ADME, organism-based, Macaca mulatta; set-up: dose 1 mg/kg, route oral; settings: rhesus monkey, in vivo
Cynomolgus monkey [22] = experiment: Antidiabetic activity in po dosed cynomolgus monkey having impaired glucose tolerance assessed as decrease in blood glucose level administered 60 mins for once a week followed by glucose challenge by OGTT; format: functional, organism-based; settings: Macaca fascicularis

Chain of Cytochrome P450 3A4 (P08684 whole entry): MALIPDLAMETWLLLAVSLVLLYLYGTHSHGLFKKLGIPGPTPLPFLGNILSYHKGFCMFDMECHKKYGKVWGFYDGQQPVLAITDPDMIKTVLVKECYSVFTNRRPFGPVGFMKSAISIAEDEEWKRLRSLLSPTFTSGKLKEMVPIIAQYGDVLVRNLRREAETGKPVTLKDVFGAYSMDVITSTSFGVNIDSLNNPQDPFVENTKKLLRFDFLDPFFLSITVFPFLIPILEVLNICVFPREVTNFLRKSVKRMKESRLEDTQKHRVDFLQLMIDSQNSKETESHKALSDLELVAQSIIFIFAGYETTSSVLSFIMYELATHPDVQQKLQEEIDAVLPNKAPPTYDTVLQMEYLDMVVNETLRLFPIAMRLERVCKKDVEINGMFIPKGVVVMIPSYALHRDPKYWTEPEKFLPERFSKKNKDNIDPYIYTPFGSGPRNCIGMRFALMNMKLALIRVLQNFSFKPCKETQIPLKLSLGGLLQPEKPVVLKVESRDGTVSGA

CCOCc1c(C(=O)NCc2cncn2C)cnn1-c1ncc(C)c(-c2cccs2)n1
remaining at 0.5 h, 1 µM [1]: 71% | Papp [2]: 4 ×10⁻⁶ cm/s | logD [3]: 2.2 | Papp [4]: 2 ×10⁻⁶ cm/s | remaining at 0.5 h, 1 µM [5]: 34% | EC50 ([6]; read-out: EC50): 1.3 nM

CCOCc1c(C(=O)NCc2cncn2C)cnn1-c1ncc(C)c(NC2CCC2)n1
remaining at 0.5 h, 1 µM [1]: 87% | Papp [2]: 1.6 ×10⁻⁶ cm/s | Papp [4]: 0.2 ×10⁻⁶ cm/s | remaining at 0.5 h, 1 µM [5]: 68% | EC50 ([6]; read-out: EC50): 25 nM

CCCCc1c(C(=O)NCc2c[nH]c3ccccc23)cnn1-c1ncc(C)c(-c2cccs2)n1
EC50 ([6]; read-out: EC50): > 20000 nM

CCC(C)c1c(C(=O)NCc2ccncc2)cnn1-c1ncc(C)c(-c2cccs2)n1 (stereo not given)
EC50 ([6]; read-out: EC50): 1200 nM

CCCc1c(C(=O)NC(C)(C)c2ccncc2)cnn1-c1ncc(C)c(-c2cccs2)n1
EC50 ([6]; read-out: EC50): 5 nM | remaining at 0.25 h, 1 µM [7]: 2%

CCOCc1c(C(=O)NCc2cncn2C)cnn1-c1ncc(C)c(N2CCCC2)n1
remaining at 0.5 h, 1 µM [1]: 69% | Papp [2]: 3.1 ×10⁻⁶ cm/s | logD [3]: 2 | Papp [4]: 0.8 ×10⁻⁶ cm/s | remaining at 0.5 h, 1 µM [5]: 46% | remaining at 0.5 h, 1 µM [8]: 66% | EC50 ([6]; read-out: EC50): 14 nM

CCCCc1c(C(=O)NCc2ccc(F)cc2)cnn1-c1ncc(C)c(-c2cccs2)n1
EC50 ([6]; hek293): Not Active | remaining at 0.25 h, 1 µM [7]: 2%

CCOCc1c(C(=O)NCc2cncn2C)cnn1-c1ncc(C)c(N2CCC2)n1
remaining at 0.5 h, 1 µM [1]: 76% | Papp [2]: 1.6 ×10⁻⁶ cm/s | Papp [4]: 0.2 ×10⁻⁶ cm/s | remaining at 0.5 h, 1 µM [5]: 78% | EC50 ([6]; read-out: EC50): 28 nM

CCCc1c(C(=O)NCc2ccncc2)cnn1-c1ncc(C)c(-c2cccs2)n1
EC50 ([6]; read-out: EC50): 250 nM | remaining at 0.25 h, 1 µM [7]: 1%

COCc1c(C(=O)NCc2ccncc2)cnn1-c1ncc(C)c(-c2cccs2)n1
Activity (Pancreatic islet [9]): Active | Activity (Mus musculus [10]): Active | clearance [11]: 21.7 mL/min/kg | Activity (Pancreatic islet [12]): inactive | EC50 ([6]; read-out: EC50): 1500 nM | Vd [13]: 1 L/kg | remaining at 0.25 h, 1 µM [7]: 3% | bioavailability [14]: 3.9%

CCCc1c(C(=O)N(CC)Cc2ccncc2)cnn1-c1ncc(C)c(-c2cccs2)n1
EC50 ([6]; read-out: EC50): 3000 nM | remaining at 0.25 h, 1 µM [7]: 0%

CCCCc1c(C(=O)NCc2sc(C)nc2C)cnn1-c1ncc(C)c(-c2cccs2)n1
EC50 ([6]; read-out: EC50): 200 nM | remaining at 0.25 h, 1 µM [7]: 10%

CCCCc1c(C(=O)NCc2cnc(C)n2C)cnn1-c1ncc(C)c(-c2cccs2)n1
EC50 ([6]; read-out: EC50): 30 nM | remaining at 0.25 h, 1 µM [7]: 6% | remaining at 0.25 h, 1 µM [15]: 20%

CCCCc1c(C(=O)NCc2ccncc2)cnn1-c1ncc(C)c(-c2cccs2)n1
EC50 ([6]; read-out: EC50): 7 nM

N[C@@H](CC(=O)N1CCn2c(nnc2C(F)(F)F)C1)Cc1cc(F)c(F)cc1F
Activity (Cynomolgus monkey [16]): Active | Activity (Mus musculus [17]): Active

CCCCc1c(C(=O)NCc2c(C)ncn2C)cnn1-c1ncc(C)c(-c2cccs2)n1
EC50 ([6]; read-out: EC50): 1 nM | remaining at 0.25 h, 1 µM [15]: 19%

CCCc1c(C(=O)NCc2cc(C)no2)cnn1-c1ncc(C)c(-c2cccs2)n1
EC50 ([6]; read-out: EC50): > 20000 nM | remaining at 0.25 h, 1 µM [7]: 11%

CCCc1c(C(=O)NCc2cn(C)cn2)cnn1-c1ncc(C)c(-c2cccs2)n1
EC50 ([6]; read-out: EC50): 15000 nM | remaining at 0.25 h, 1 µM [7]: 4.7%

CCCCc1c(C(=O)NCc2cncn2C)cnn1-c1ncc(C)c(-c2cccs2)n1
remaining at 0.5 h, 1 µM [1]: 74% | Papp [2]: 8 ×10⁻⁶ cm/s | Papp [4]: 3.6 ×10⁻⁶ cm/s | remaining at 0.5 h, 1 µM [5]: 40% | remaining at 0.5 h, 1 µM [8]: 54% | EC50 ([6]; read-out: EC50): 1 nM | remaining at 0.25 h, 1 µM [7]: 56% | remaining at 0.25 h, 1 µM [15]: 70%

CCCCc1c(C(=O)NC2CCCc3ncn(C)c32)cnn1-c1ncc(C)c(-c2cccs2)n1 (stereo not given)
EC50 ([6]; read-out: EC50): 100 nM | remaining at 0.25 h, 1 µM [7]: 5% | remaining at 0.25 h, 1 µM [15]: 22%

CCOCc1c(C(=O)NCc2cncn2C)cnn1-c1ncc(C)c(N2CCCCC2)n1
remaining at 0.5 h, 1 µM [1]: 88% | Papp [2]: 3.5 ×10⁻⁶ cm/s | Activity (Cynomolgus monkey [18]): Active | Activity (Mus musculus [19]): Dose-dependent effect | Activity (Mus musculus [20]): Dose-dependent effect | ED50 (Mus musculus [20]; 0.5 h): 3.3 mg/kg | IC50 (Cytochrome P450 3A4): 1000 nM | Papp [4]: 1.5 ×10⁻⁶ cm/s | remaining at 0.5 h, 1 µM [5]: 61% | half-life [21]: 1.2 h | Activity (Cynomolgus monkey [22]): Dose-dependent effect | clearance [11]: 16.7 mL/min/kg | remaining at 0.5 h, 1 µM [8]: 53% | EC50 ([6]; read-out: EC50): 22 nM | Vd [13]: 0.77 L/kg | bioavailability [14]: 26%

CCc1c(C(=O)NCc2ccncc2)cnn1-c1ncc(C)c(-c2cccs2)n1
EC50 ([6]; read-out: EC50): 1000 nM

CCOCc1c(C(=O)NCc2cncn2C)cnn1-c1ncc(C)c(OCC)n1
remaining at 0.5 h, 1 µM [1]: 77% | Papp [2]: 2.9 ×10⁻⁶ cm/s | Papp [4]: 1.2 ×10⁻⁶ cm/s | remaining at 0.5 h, 1 µM [5]: 66% | remaining at 0.5 h, 1 µM [8]: 77% | EC50 ([6]; read-out: EC50): 96 nM

CCOCc1c(C(=O)NCc2ccncc2)cnn1-c1ncc(C)c(-c2cccs2)n1
EC50 ([6]; read-out: EC50): 30 nM

CCCCc1c(C(=O)NCc2cncn2CC(=O)O)cnn1-c1ncc(C)c(-c2cccs2)n1
EC50 ([6]; read-out: EC50): 0.2 nM | remaining at 0.25 h, 1 µM [7]: 93%

CCCCCc1c(C(=O)NCc2ccncc2)cnn1-c1ncc(C)c(-c2cccs2)n1
EC50 ([6]; read-out: EC50): 1000 nM

CCCCc1c(C(=O)NCc2ccnn2C)cnn1-c1ncc(C)c(-c2cccs2)n1
EC50 ([6]; read-out: EC50): 90 nM | remaining at 0.25 h, 1 µM [7]: 13%
